From US20260306460A1, “COMPOSITION FOR REMOVING AND INHIBITING SENESCENT CELLS, AND USES THEREOF” (LIFECEUTIX CO., LTD., priority 2023, published 2026)

Key:
[1] = test system: HMGN1 secreted from senescent A549 cells; experiment: HMGN1 secretion (ELISA) from senescent A549 cancer cells, Example 12; type: cell-based, human; conditions: senescent untreated = 100%; 30 μM; 90 μM for LX-305, 905, 1302, 1601, 1603, 2003, 2702, 2901, 3106; 270 μM for LX-1103, 2005, 2007;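 note: A549 cells made senescent by doxorubicin exposure, with DMSO-treated cells serving as the non-senescent control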
Method: Cells were treated with doxorubicin or control (DMSO) and cultured.

senescent foreskin cells = experiment: Survival of senescent human cells treated with supernatant (secreted fluid) from death-induced cells, Example 13; type: cell-based; conditions: Table 8; supernatant from dying senescent cells treated at 30, 90 or 270 μM (as Example 11); senescent treated cells
Method: After 3 days, cell viability was measured using CellTiter-Glo Luminescent Cell Viability Assay (Promega) or light microscopy.
During this additional culture, by checking with an optical microscope, etc., the medium supernatants containing secreted fluid from normally proliferating and senescent cells in which cell death was induced were obtained. The obtained medium supernatant was replaced with the medium of normally proliferating and senescent cells, respectively, and cell survival rate was measured after 3 days.

[2] = test system: naturally aged C57BL6J mice; experiment: Skin aging (dermal thickness, COL1A1 and SDF1 mRNA, hair loss) in naturally aged mice, Example 21-10, Table 25; type: in vivo, mouse; conditions: for Dermal Thickness (μm): mouse, in vivo; for Relative area of hair loss (%) / Col1a1 mRNA (Fold) / SDF1 mRNA (fold): naturally aged mice; for Relative area of hair loss (%): untreated aged = 100; for Col1a1 mRNA (Fold) / SDF1 mRNA (fold): skin, untreated aged = 1
Method: (§1) 22-month-old female C57BL6J mice (KRIBB Laboratory Animal Resource Center) were acclimated to the experimental environment for one week, after which the aged mice were randomly assigned to experimental and control groups. Eight-week-old, non-aged mice served as controls. LX-403 was mixed in a 10% ethanol solution of PEG400 and administered orally at a concentration of 25 mg/kg daily for 21 days, or administered to the skin, joints, or eyes at a concentration of 1 μM. LX-1801 was mixed in distilled water with 4% DMSO, 30% PEG300, and 5% Tween80 and administered to the skin, joints, or eyes at a concentration of 0.4 μM daily for 21 days. LX-2001 was mixed in PBS and administered to the skin, joints, or eyes at a concentration of […] daily for 21 days. LX-2002 was mixed in distilled water with 4% DMSO, 30% PEG300, and 5% Tween80 and administered to the skin, joints, or eyes at a concentration of 2 μM daily for 21 days. […] LX-2005 was mixed in distilled water with 4% DMSO, 30% PEG300, and 5% Tween80 and administered to the skin, joints, or eyes at a concentration of 90 μM daily for 21 days. LX-2007 was mixed in distilled water with 4% DMSO, 30% PEG300, and 5% Tween80 and administered to the skin, joints, or eyes at a concentration of 90 μM daily for 21 days. […] LX-3002 was mixed in distilled water with 4% DMSO, 30% PEG300, and 5% Tween80 and administered orally at a concentration of 10 mg/kg daily for 21 days. […] LX-5411 was mixed in 5% PBS and administered orally at a concentration of 10 mg/kg daily for 21 days or administered to the skin, joints, or eyes at a concentration of 3 μM. LX-5701 was mixed in PBS and administered orally at a concentration of 360 mg/kg daily for 21 days. LX-6807 was mixed in saline and administered intraperitoneally at a concentration of 1 mg/kg daily for 21 days. LX-2101 or LX-2102 was mixed in PBS solution with 5% DMSO and administered intraperitoneally at a concentration of 20 mg/kg or 10 mg/kg, respectively, daily for 21 days. The control group received only the solution in the same volume. After the end of drug administration, the methods described in each example below were performed.
Frozen sections of skin tissue were stained with Hematoxylin/Eosin (H/E), and the dermal thickness was observed under an optical microscope. Furthermore, the mRNA levels of collagen (COL1A1), a skin component, and SDF1, which suppresses age-related pigmentation, were measured using qRT-PCR as described in Example 7-2 of WO2023-085787 A1. […] Furthermore, biweekly examinations were performed to assess the onset of hair loss due to aging.

[3] = test system: bleomycin-induced scleroderma C57BL6J mice; experiment: Bleomycin scleroderma in mice (p16, COL1A1 mRNA, dermal thickness), Example 24-2, Table 48; type: in vivo, mouse; conditions: daily for 21 days; for p16 mRNA: untreated 100 (±8.8); for Col1a1 mRNA: untreated 100 (±13.2); for Dermal Thickness: untreated 459 (±38.7)
Method: Eight-week-old male C57BL6J mice (KRIBB Laboratory Animal Resource Center) were acclimated to the experimental environment for one week. Then, 100 μl of the anticancer drug bleomyxin (1 mg/ml) was administered subcutaneously every other day to induce scleroderma for more than three weeks. Mice with scleroderma were randomly assigned to experimental and control groups. LX-403 was mixed with a 10% ethanol solution of PEG400 and administered orally at a concentration of 25 mg/kg daily for 21 days or administered directly to the skin at a concentration of 1 μM. LX-1801 was mixed with a solution of 4% DMSO, 30% PEG300, and 5% Tween80 in distilled water and administered subcutaneously at a concentration of 0.4 μM daily for 21 days. LX-2001 was mixed in PBS and administered intradermally at a concentration of 2 μM daily for 21 days. LX-2002 was mixed in distilled water with 4% DMSO, 30% PEG300, and 5% Tween80 and administered intradermally at a concentration of 2 μM daily for 21 days. […] LX-2005 was mixed in distilled water with 4% DMSO, 30% PEG300, and 5% Tween80 and administered intradermally at a concentration of 90 μM daily for 21 days. LX-2007 was mixed in distilled water with 4% DMSO, 30% PEG300, and 5% Tween80 and administered intradermally at a concentration of 90 μM daily for 21 days. […] LX-3002 was mixed with distilled water with 4% DMSO, 30% PEG300, 5% tween80 and administered orally at 10 mg/kg daily for 21 days. […] LX-5411 was mixed with 5% PBS and administered orally at 10 mg/kg daily for 21 days or subcutaneously at 3 μM. LX-5701 was mixed with PBS and administered orally at 360 mg/kg daily for 21 days. LX-6807 was mixed in saline and administered intraperitoneally at a concentration of 1 mg/kg daily for 21 days. The control group was administered only the solution in the same volume. After the end of drug administration, mice were sacrificed in the same manner as in Example 7-2 of WO2023-085787 A1, RNA was extracted from skin tissue, and the synthesized cDNA was used to perform and analyze the mRNA amounts of p16 and collagen (COL1A1) by qRT-PCR (quantitative real-time PCR). In addition, to measure the degree of bleomycin-induced skin hardening, skin frozen sections were stained with H/E (Hematoxylin/Eosin), and the thickness of the dermis was observed under an optical microscope.

[4] = test system: naturally aged C57BL6J mice; experiment: Hot plate joint pain test in naturally aged mice, Example 21-12, Table 27; type: in vivo, mouse; conditions: hot plate 55° C., untreated aged 6.9 (±1.8)
Method: as §1
RNA was extracted from joint tissue as described in Example 7-2 of WO2023-085787 A1, and qRT-PCR was performed using the synthesized cDNA. […] To analyze joint pain due to joint aging, hotplate analysis was performed. Specifically, thermal pain thresholds were measured using a hot plate. After acclimating mice to a temperature of 30° C. for 10 minutes, the time required for hind paw licking or jumping responses to occur at 55° C. was measured. To prevent tissue damage, the response was measured for less than 30 seconds, and the average value was used from five measurements.

[5] = test system: NaIO3-induced retinal degenerative C57BL6J mice; experiment: NaIO3 retinal degeneration in mice (p16 mRNA, outer nuclear layer thickness), Example 29, Table 53; type: in vivo, mouse; conditions: daily for 21 days; for Outer nuclear layer thickness: untreated 27.4 (±1.3); for p16 mRNA: untreated 100%
Method: Then, retinal degenerative diseases were induced for more than 7 days by intravenous administration of 20 mg/kg of NaIO3, an oxidizing agent that induces retinal pigment epithelial cell death and retinal degeneration. Mice with retinal degenerative diseases were randomly assigned to experimental and control groups. […] The control group received only the solution in the same volume. […] In addition, frozen sections of the other eye tissue were stained with H/E (Hematoxylin/Eosin), and the thickness of the outer nuclear layer (ORL) was observed under an optical microscope. […] The mRNA amount after aging induction was calculated as 100% and compared with the mRNA amount of p16 after treatment with the test compound.

Row | Compound | HMGN1 [1] [%] | Survival (senescent foreskin cells) | Dermal Thickness (μm) [2] | Relative area of hair loss (%) [2] | Col1a1 mRNA (Fold) [2] | SDF1 mRNA (fold) [2] | p16 mRNA [3] | Col1a1 mRNA [3] | Dermal Thickness [3] | Response time (s) [4] | Outer nuclear layer thickness [5] | p16 mRNA [5]
1 | C[C@H]1[C@H](C)CC[C@]2(C(=O)O)CC[C@]3(C)C(=CC[C@@H]4[C@@]5(C)CC[C@H](O)C(C)(C)[C@@H]5CC[C@]43C)[C@H]12 [LX-2001, Ursolic acid] | 328 | 57.8 | 241 (±46.6) μm | 73 (±8.3) % | 2.2 (±0.4) Fold | 1.6 (±0.2) fold | 64.2 (±4.4) % | 62.8 (±5.6) % | 394 (±78.4) μm | 5.0 (±0.9) s | 34.1 (±5.1) μm | 61 (±4.1) %
2 | CC1(C)CC[C@]2(C(=O)O)CC[C@]3(C)C(=CC[C@@H]4[C@@]5(C)CC[C@H](O)C(C)(C)[C@@H]5CC[C@]43C)[C@@H]2C1 [LX-2003, Oleanolic acid] | 218 | 64.2 | 235 (±56.3) μm | 71 (±2.2) % | 2.3 (±0.4) Fold | 1.7 (±0.1) fold | 72.4 (±5.8) % | 73.8 (±3.5) % | 411 (±81.3) μm | 5.1 (±0.7) s | 31.2 (±8.7) μm | 52 (±6.3) %
3 | Tocofersolan [LX-3001] | 261 | 58.7 | 223 (±15.7) μm | – | – | – | 76.1 (±5.5) % | 81.4 (±2.5) % | 421 (±28.4) μm | 6.1 (±0.6) s | 34.1 (±2.1) μm | 80 (±2.5) %
4 | O=C(C(C[N+](=O)[O-])=NO)N1CCN(C(c2ccc(Cl)cc2)c2ccc(Cl)cc2)CC1 [LX-403] | 320 | 45.1 | 232 (±16.2) μm | 69 (±2.5) % | 2.4 (±0.2) Fold | 1.8 (±0.1) fold | 34.7 (±4.1) % | 45.7 (±4.5) % | 356 (±36.3) μm | 5.6 (±0.7) s | 40.1 (±1.9) μm | 34 (±2.2) %
5 | C[C@H]1[C@H](C)CC[C@]2(C(=O)O)CC[C@]3(C)C(=CC[C@@H]4[C@@]5(C)C[C@@H](O)[C@H](O)C(C)(C)[C@@H]5CC[C@]43C)[C@H]12 [LX-2002, Corosolic acid] | 314 | 58.3 | 253 (±40.1) μm | 75 (±8.3) % | 1.9 (±0.3) Fold | 1.4 (±0.1) fold | 51.3 (±2.6) % | 71.2 (±4.2) % | 427 (±60.1) μm | 5.3 (±0.6) s | 30.1 (±7.8) μm | 60 (±3.8) %
6 | C=C(C)[C@@H]1CC[C@]2(C(=O)O)CC[C@]3(C)[C@H](CC[C@@H]4[C@@]5(C)CC[C@H](O)C(C)(C)[C@@H]5CC[C@]43C)[C@@H]12 [LX-2005, Betulinic acid] | 252 | 91.6 | 227 (±28.4) μm | 80 (±4.9) % | 1.7 (±0.2) Fold | 1.9 (±0.2) fold | 62.8 (±4.6) % | 68.2 (±2.4) % | 432 (±61.7) μm | 4.9 (±1.2) s | 30.9 (±3.8) μm | 71 (±4.9) %
7 | CC1(C)C=C2[C@H]3CC[C@@H]4[C@@]5(C)CCC(=O)C(C)(C)[C@@H]5CC[C@@]4(C)[C@]3(C)CC[C@@]2(C(=O)O)CC1 [LX-2007, Moronic acid] | 192 | 95.7 | 219 (±31.1) μm | 86 (±5.5) % | 1.6 (±0.3) Fold | 1.3 (±0.2) fold | 75.1 (±3.5) % | 80.5 (±4.0) % | 421 (±83.6) μm | 5.8 (±0.5) s | 29.4 (±7.5) μm | 75 (±5.9) %
